Results taken from PMC5218480 (PLoS ONE, 2017).

Test system: MV-4-11 cells
Experiment: Gene expression microarray analysis (Affymetrix PrimeView) and GSEA
Assay type: cell-based, human
Design: RFU PODN (11730768_x_at) / Fold change /veh PODN (11730768_x_at) / RFU LINC00158 (11744669_a_at) / Fold change /veh LINC00158 (11744669_a_at) / RFU DUSP10 (11751237_a_at) / Fold change /veh DUSP10 (11751237_a_at) / RFU ID3 (11757404_x_at) / Fold change /veh ID3 (11757404_x_at) / RFU PLEKHG5 (11737974_s_at) / Fold change /veh PLEKHG5 (11737974_s_at) / RFU LRRC4B (11730491_at) / Fold change /veh LRRC4B (11730491_at) / RFU GIMAP4 (11747438_a_at) / Fold change /veh GIMAP4 (11747438_a_at) / RFU KRT8 (11758183_x_at) / Fold change /veh KRT8 (11758183_x_at) / RFU CNN1 (11734310_a_at) / Fold change /veh CNN1 (11734310_a_at) / RFU VPS37D (11726825_at) / Fold change /veh VPS37D (11726825_at) / RFU C10orf10 (11716522_x_at) / Fold change /veh C10orf10 (11716522_x_at) / RFU KIR2DL2 /// KIR2DL4 /// KIR2DL5A /// KIR2DL5B /// KIR2DS1 /// KIR2DS2 /// KIR2DS3 /// KIR2DS4 /// KIR3DL3 /// KIR3DL3 /// KIR3DS1 (11738374_at) / Fold change /veh KIR2DL2 /// KIR2DL4 /// KIR2DL5A /// KIR2DL5B /// KIR2DS1 /// KIR2DS2 /// KIR2DS3 /// KIR2DS4 /// KIR3DL3 /// KIR3DL3 /// KIR3DS1 (11738374_at) / RFU C1QL1 (11718748_at) / Fold change /veh C1QL1 (11718748_at) / RFU TMPRSS4 (11747572_a_at) / Fold change /veh TMPRSS4 (11747572_a_at) / RFU HAMP (11756126_x_at) / Fold change /veh HAMP (11756126_x_at) / RFU RNFT2 (11725882_a_at) / Fold change /veh RNFT2 (11725882_a_at) / RFU NR4A2 (11747474_a_at) / Fold change /veh NR4A2 (11747474_a_at) / RFU ABCC12 (11746883_a_at) / Fold change /veh ABCC12 (11746883_a_at) / RFU TMEM136 (11760407_x_at) / Fold change /veh TMEM136 (11760407_x_at) / RFU CLDN22 /// WWC2 (11732394_at) / Fold change /veh CLDN22 /// WWC2 (11732394_at) / RFU HLA-DPB1 (11760878_x_at) / Fold change /veh HLA-DPB1 (11760878_x_at) / RFU SPINT1 (11716480_a_at) / Fold change /veh SPINT1 (11716480_a_at) / RFU GAP43 (11754022_s_at) / Fold change /veh GAP43 (11754022_s_at) / RFU A4GNT (11735810_at) / Fold change /veh A4GNT (11735810_at) / RFU PRB3 (11715151_x_at) / Fold change /veh PRB3 (11715151_x_at) / RFU TUBB4B (11761932_at) / Fold change /veh TUBB4B (11761932_at) / RFU CAPN14 (11732068_a_at) / Fold change /veh CAPN14 (11732068_a_at) / RFU TMCC2 (11721928_a_at) / Fold change /veh TMCC2 (11721928_a_at) / RFU IRGQ (11745062_a_at) / Fold change /veh IRGQ (11745062_a_at) / RFU FAM174B (11720279_a_at) / Fold change /veh FAM174B (11720279_a_at) / RFU TMPRSS4 (11748680_a_at) / Fold change /veh TMPRSS4 (11748680_a_at) / RFU FAM212B (11763350_a_at) / Fold change /veh FAM212B (11763350_a_at) / RFU PLEKHG5 (11743358_a_at) / Fold change /veh PLEKHG5 (11743358_a_at) / RFU ZSCAN30 (11745921_a_at) / Fold change /veh ZSCAN30 (11745921_a_at) / RFU CMKLR1 (11741424_a_at) / Fold change /veh CMKLR1 (11741424_a_at) / RFU LOC101060620 /// MAPK8IP1 (11723275_at) / Fold change /veh LOC101060620 /// MAPK8IP1 (11723275_at) / RFU SPTSSB (11747773_x_at) / Fold change /veh SPTSSB (11747773_x_at) / RFU PRSS12 (11739890_at) / Fold change /veh PRSS12 (11739890_at) / RFU BIN1 (11741810_x_at) / Fold change /veh BIN1 (11741810_x_at) / RFU WNT11 (11732464_a_at) / Fold change /veh WNT11 (11732464_a_at) / RFU C10orf10 (11716521_a_at) / Fold change /veh C10orf10 (11716521_a_at) / RFU C5orf56 (11738089_at) / Fold change /veh C5orf56 (11738089_at) / RFU CYB561 (11721691_x_at) / Fold change /veh CYB561 (11721691_x_at) / RFU ANKRD19P (11752326_a_at) / Fold change /veh ANKRD19P (11752326_a_at) / RFU OR2T12 /// OR2T33 /// OR2T8 (11738714_s_at) / Fold change /veh OR2T12 /// OR2T33 /// OR2T8 (11738714_s_at) / RFU VCAN (11748164_a_at) / Fold change /veh VCAN (11748164_a_at) / RFU JSRP1 (11732532_at) / Fold change /veh JSRP1 (11732532_at) / RFU KRTAP10-11 (11738290_x_at) / Fold change /veh KRTAP10-11 (11738290_x_at) / RFU MYO3A (11730013_a_at) / Fold change /veh MYO3A (11730013_a_at) / RFU EBF3 (11725865_a_at) / Fold change /veh EBF3 (11725865_a_at) / RFU CAMK2N1 (11719241_x_at) / Fold change /veh CAMK2N1 (11719241_x_at) / RFU C5orf56 (11738088_a_at) / Fold change /veh C5orf56 (11738088_a_at) / RFU OLFML3 (11715873_a_at) / Fold change /veh OLFML3 (11715873_a_at) / RFU LOC100653217 /// NTM (11731650_a_at) / Fold change /veh LOC100653217 /// NTM (11731650_a_at) / RFU MAPK11 (11762145_a_at) / Fold change /veh MAPK11 (11762145_a_at) / RFU FIZ1 (11724087_x_at) / Fold change /veh FIZ1 (11724087_x_at) / RFU OASL (11726364_x_at) / Fold change /veh OASL (11726364_x_at) / RFU SOX15 (11748057_x_at) / Fold change /veh SOX15 (11748057_x_at) / RFU CD79A (11719716_a_at) / Fold change /veh CD79A (11719716_a_at) / RFU HIST1H1D (11736915_at) / Fold change /veh HIST1H1D (11736915_at) / RFU CASKIN2 (11723855_a_at) / Fold change /veh CASKIN2 (11723855_a_at) / RFU LOC730098 (11760151_x_at) / Fold change /veh LOC730098 (11760151_x_at) / RFU OR4N2 (11742367_at) / Fold change /veh OR4N2 (11742367_at) / RFU PRRT2 (11749266_a_at) / Fold change /veh PRRT2 (11749266_a_at) / RFU SNX32 (11753110_a_at) / Fold change /veh SNX32 (11753110_a_at) / RFU CDHR5 (11726645_a_at) / Fold change /veh CDHR5 (11726645_a_at) / RFU RCAN1 (11760418_a_at) / Fold change /veh RCAN1 (11760418_a_at) / RFU FAM167A (11723789_a_at) / Fold change /veh FAM167A (11723789_a_at) / RFU FAM26E (11764081_at) / Fold change /veh FAM26E (11764081_at) / RFU ISYNA1 (11749810_s_at) / Fold change /veh ISYNA1 (11749810_s_at) / RFU ACY1 (11761880_at) / Fold change /veh ACY1 (11761880_at) / RFU 11764098_at / Fold change /veh 11764098_at / RFU SAMD14 (11745864_x_at) / Fold change /veh SAMD14 (11745864_x_at) / RFU NPB (11741838_a_at) / Fold change /veh NPB (11741838_a_at) / RFU TMPRSS6 (11731388_a_at) / Fold change /veh TMPRSS6 (11731388_a_at) / RFU KRTAP10-2 (11738614_at) / Fold change /veh KRTAP10-2 (11738614_at) / RFU ARHGAP8 /// PRR5-ARHGAP8 (11727945_x_at) / Fold change /veh ARHGAP8 /// PRR5-ARHGAP8 (11727945_x_at) / RFU KRTAP5-7 /// NADSYN1 (11734609_at) / Fold change /veh KRTAP5-7 /// NADSYN1 (11734609_at) / RFU RASL12 (11751679_a_at) / Fold change /veh RASL12 (11751679_a_at) / RFU CDKN2B (11736163_a_at) / Fold change /veh CDKN2B (11736163_a_at) / RFU PRF1 (11729649_at) / Fold change /veh PRF1 (11729649_at) / RFU, ZNF638 /// ZNF638-IT1 / Fold change vs veh, ZNF638 /// ZNF638-IT1 / RFU, PANK3 / Fold change vs veh, PANK3 / RFU, SH3YL1 / Fold change vs veh, SH3YL1 / RFU, ZEB2 / Fold change vs veh, ZEB2 / RFU, NRIP1 / Fold change vs veh, NRIP1 / RFU, PTTG1IP / Fold change vs veh, PTTG1IP / RFU, CAPN2 / Fold change vs veh, CAPN2 / RFU, MED14 / Fold change vs veh, MED14 / RFU, SNORA58 / Fold change vs veh, SNORA58 / RFU, C1orf63 / Fold change vs veh, C1orf63 / RFU, LRRFIP1 / Fold change vs veh, LRRFIP1 / RFU, NDUFAF7 / Fold change vs veh, NDUFAF7 / RFU, SLC12A2 / Fold change vs veh, SLC12A2 / RFU, IBTK / Fold change vs veh, IBTK / RFU, ESF1 / Fold change vs veh, ESF1 / Fold change vs veh, TMEM50B / RFU, TAOK1 / Fold change vs veh, TAOK1 / RFU, ACBD3 / Fold change vs veh, ACBD3 / RFU, TMA16 / Fold change vs veh, TMA16 / RFU, RWDD3 / Fold change vs veh, RWDD3 / RFU, BCAT1 / Fold change vs veh, BCAT1 / RFU, EDEM3 / Fold change vs veh, EDEM3 / RFU, TMEM33 / Fold change vs veh, TMEM33 / RFU, WDR75 / Fold change vs veh, WDR75 / RFU, AHCTF1 / Fold change vs veh, AHCTF1 / RFU, TFRC / Fold change vs veh, TFRC / RFU, ZDHHC17 / Fold change vs veh, ZDHHC17 / RFU, NOM1 / Fold change vs veh, NOM1 / RFU, ARL8B / Fold change vs veh, ARL8B / RFU, ZBTB11 / Fold change vs veh, ZBTB11 / RFU, TAMM41 / Fold change vs veh, TAMM41 / RFU, KIAA1704 /// LOC100996395 / Fold change vs veh, KIAA1704 /// LOC100996395 / RFU, ING1 / Fold change vs veh, ING1 / RFU, TRMT61B / Fold change vs veh, TRMT61B / RFU, FUBP3 / Fold change vs veh, FUBP3 / RFU, TP53 / Fold change vs veh, TP53 / RFU, TNKS2 / Fold change vs veh, TNKS2 / RFU, ZFP14 / Fold change vs veh, ZFP14 / RFU, ACTR2 / Fold change vs veh, ACTR2 / RFU, PPP3R1 / Fold change vs veh, PPP3R1 / RFU, PIK3R1 / Fold change vs veh, PIK3R1 / RFU, HNRNPA1 / Fold change vs veh, HNRNPA1 / RFU, RNF170 / Fold change vs veh, RNF170 / RFU, ZNF28 / Fold change vs veh, ZNF28 / RFU, RNGTT / Fold change vs veh, RNGTT / RFU, OGT / Fold change vs veh, OGT / RFU, BRD1 / Fold change vs veh, BRD1 / RFU, MARS / Fold change vs veh, MARS / RFU, ZNF655 / Fold change vs veh, ZNF655 / RFU, FAHD1 / Fold change vs veh, FAHD1 / RFU, BDP1 / Fold change vs veh, BDP1 / RFU, LRRCC1 / Fold change vs veh, LRRCC1 / RFU, ARID1A / Fold change vs veh, ARID1A / RFU, ZNF146 / Fold change vs veh, ZNF146 / RFU, ZNF330 / Fold change vs veh, ZNF330 / RFU, GPN3 / Fold change vs veh, GPN3 / RFU, C9orf123 / Fold change vs veh, C9orf123 / RFU, N4BP2L2 / Fold change vs veh, N4BP2L2 / RFU, ARFIP1 / Fold change vs veh, ARFIP1 / RFU, FAM179B / Fold change vs veh, FAM179B / RFU, BCL10 / Fold change vs veh, BCL10 / RFU, UHRF1BP1L / Fold change vs veh, UHRF1BP1L / RFU, BET1 / Fold change vs veh, BET1 / RFU, CNOT2 / Fold change vs veh, CNOT2 / RFU, ZNF268 / Fold change vs veh, ZNF268 / Fold change vs veh, ZNF507 / RFU, DGCR2 / Fold change vs veh, DGCR2 / RFU, WDSUB1 / Fold change vs veh, WDSUB1 / Fold change vs veh, HSP90B1 /// MIR3652 / RFU, ADSS / Fold change vs veh, ADSS / RFU, GK / Fold change vs veh, GK / RFU, ZNF148 / Fold change vs veh, ZNF148 / RFU, TAF9 / Fold change vs veh, TAF9 / RFU, SLC1A5 / Fold change vs veh, SLC1A5 / RFU, SLMO2 / Fold change vs veh, SLMO2 / RFU, ABCC4 / Fold change vs veh, ABCC4 / RFU, LOC101060439 /// RAP1B / Fold change vs veh, LOC101060439 /// RAP1B / RFU, RFX7 / Fold change vs veh, RFX7 / RFU, GTPBP10 / Fold change vs veh, GTPBP10 / RFU, CNEP1R1 / Fold change vs veh, CNEP1R1 / RFU, BIVM-ERCC5 /// ERCC5 / Fold change vs veh, BIVM-ERCC5 /// ERCC5 / RFU, ILF3 / Fold change vs veh, ILF3 / RFU 11762660_at / Fold change /veh 11762660_at / RFU VCAN (11757783_s_at) / Fold change /veh VCAN (11757783_s_at) / RFU DDX43 (11728927_at) / Fold change /veh DDX43 (11728927_at) / RFU KRT8 (11758188_x_at) / Fold change /veh KRT8 (11758188_x_at) / RFU NKD1 (11759106_at) / Fold change /veh NKD1 (11759106_at) / RFU SRD5A1 (11742802_a_at) / Fold change /veh SRD5A1 (11742802_a_at) / RFU TPSAB1 /// TPSB2 (11721975_s_at) / Fold change /veh TPSAB1 /// TPSB2 (11721975_s_at) / RFU GSTM3 (11746129_a_at) / Fold change /veh GSTM3 (11746129_a_at) / RFU IL23R (11737362_x_at) / Fold change /veh IL23R (11737362_x_at) / RFU TMEM51 (11727254_a_at) / Fold change /veh TMEM51 (11727254_a_at) / RFU PIWIL2 (11732686_x_at) / Fold change /veh PIWIL2 (11732686_x_at) / RFU ORM1 (11744905_x_at) / Fold change /veh ORM1 (11744905_x_at) / RFU CCDC152 (11743942_at) / Fold change /veh CCDC152 (11743942_at) / RFU ECM1 (11717891_a_at) / Fold change /veh ECM1 (11717891_a_at) / RFU IL23R (11748794_a_at) / Fold change /veh IL23R (11748794_a_at) / RFU TNFAIP8L3 (11732012_x_at) / Fold change /veh TNFAIP8L3 (11732012_x_at) / RFU MBOAT4 (11741988_at) / Fold change /veh MBOAT4 (11741988_at) / RFU 11764193_at / Fold change /veh 11764193_at / RFU TMEM53 (11763286_at) / Fold change /veh TMEM53 (11763286_at) / RFU MAGEB2 (11727129_at) / Fold change /veh MAGEB2 (11727129_at) / RFU TMEM200A (11744735_a_at) / Fold change /veh TMEM200A (11744735_a_at) / RFU CCDC152 (11751479_a_at) / Fold change /veh CCDC152 (11751479_a_at) / RFU FAM211A (11726209_a_at) / Fold change /veh FAM211A (11726209_a_at) / RFU RGS16 (11746705_a_at) / Fold change /veh RGS16 (11746705_a_at) / RFU VCAN (11755009_s_at) / Fold change /veh VCAN (11755009_s_at) / RFU RHOB (11743442_s_at) / Fold change /veh RHOB (11743442_s_at) / RFU RGS16 (11720943_a_at) / Fold change /veh RGS16 (11720943_a_at) / RFU RGS16 (11720944_at) / Fold change /veh RGS16 (11720944_at) / RFU, VPS4B / Fold change vs veh, VPS4B / RFU, CREB1 / Fold change vs veh, CREB1 / RFU, DNAJC13 / Fold change vs veh, DNAJC13 / RFU, GNAQ / Fold change vs veh, GNAQ / RFU, CDK5R1 / Fold change vs veh, CDK5R1 / RFU, ZRANB3 / Fold change vs veh, ZRANB3 / RFU, CUL4A / Fold change vs veh, CUL4A / RFU, CCNY / Fold change vs veh, CCNY / RFU, UFL1 / Fold change vs veh, UFL1 / RFU, COG3 / Fold change vs veh, COG3 / RFU, DIAPH2 / Fold change vs veh, DIAPH2 / RFU, SKA2 / Fold change vs veh, SKA2 / RFU, AFF3 / Fold change vs veh, AFF3 / RFU, LMF1 / Fold change vs veh, LMF1 / RFU, IPO11 / Fold change vs veh, IPO11 / RFU, DFFB / Fold change vs veh, DFFB / RFU, FOXP1 / Fold change vs veh, FOXP1 / RFU, CARD8 / Fold change vs veh, CARD8 / RFU, STRN3 / Fold change vs veh, STRN3 / RFU, ADK / Fold change vs veh, ADK / RFU, RASSF2 / Fold change vs veh, RASSF2 / RFU, WIPF1 / Fold change vs veh, WIPF1 / RFU, LARP1B / Fold change vs veh, LARP1B / RFU, RASA1 / Fold change vs veh, RASA1 / RFU, RB1 / Fold change vs veh, RB1 / RFU, PPFIA1 / Fold change vs veh, PPFIA1 / RFU, MAT2A / Fold change vs veh, MAT2A / RFU, CCT5 / Fold change vs veh, CCT5 / RFU, WDR92 / Fold change vs veh, WDR92 / RFU, CUX1 / Fold change vs veh, CUX1 / RFU, TTC7A / Fold change vs veh, TTC7A / RFU, TMEM135 / Fold change vs veh, TMEM135 / RFU, DEPTOR / Fold change vs veh, DEPTOR / RFU, CPM / Fold change vs veh, CPM / RFU, DNAJB6 / Fold change vs veh, DNAJB6 / RFU, CACNA2D3 / Fold change vs veh, CACNA2D3 / RFU, DTX4 / Fold change vs veh, DTX4 / RFU, TFCP2 / Fold change vs veh, TFCP2 / RFU, GMCL1 /// GMCL1P1 / Fold change vs veh, GMCL1 /// GMCL1P1 / RFU, AEBP2 / Fold change vs veh, AEBP2 / RFU, SNHG1 /// SNORD22 /// SNORD25 /// SNORD26 /// SNORD27 /// SNORD28 /// SNORD29 /// SNORD31 / Fold change vs veh, SNHG1 /// SNORD22 /// SNORD25 /// SNORD26 /// SNORD27 /// SNORD28 /// SNORD29 /// SNORD31 / Fold change (Aza/veh), C12orf56 (ProbeSet 11735607_a_at) / Fold change (ACY-1035/veh), C12orf56 (ProbeSet 11735607_a_at) / Fold change (Aza/veh), FGFR1OP (ProbeSet 11751329_s_at) / Fold change (ACY-1035/veh), FGFR1OP (ProbeSet 11751329_s_at) / Fold change (Aza/veh), VPS36 (ProbeSet 11739960_a_at) / Fold change (ACY-1035/veh), VPS36 (ProbeSet 11739960_a_at) / RFU SYPL1 (11715823_x_at) / Fold change /veh SYPL1 (11715823_x_at) / RFU IGFBP7 (11715501_s_at) / Fold change /veh IGFBP7 (11715501_s_at) / RFU REEP3 (11722064_at) / Fold change /veh REEP3 (11722064_at) / RFU IGLL1 (11728026_x_at) / Fold change /veh IGLL1 (11728026_x_at): dose or concentration left out as unconfirmed
Settings: MV-4-11 cells, 48 hours

Nc1ncn([C@@H]2O[C@H](CO)[C@@H](O)[C@H]2O)c(=O)n1 [azacitidine]
Fold change /veh LOC730098 (11760151_x_at): 1.03
